Converted amounts (≈) assume the structure as drawn. Where two headings read alike, the source gives them in different places.
Columns and labels:
[1] = test system: Plasmodium falciparum NF54; experiment: P. falciparum in vitro drug sensitivity assay on asexual blood stage parasites ([3H]-hypoxanthine incorporation); assay type: cell-based; conditions: Plasmodium falciparum, NF54, Table 1 and main text; read-out: PfNF54 IC50
in vitro = conditions: human, HepG2 CC50, 48 h, MTT
[2] = test system: Pseudomonas aeruginosa PA14; experiment: In vitro antibacterial activity (growth inhibition, OD600), P. aeruginosa; assay type: cell-based
Acinetobacter baumannii = experiment: In vitro antibacterial activity (growth inhibition, OD600), A. baumannii; assay type: cell-based; conditions: for MIC: read-out: Ab MIC95
[3] = test system: Staphylococcus aureus ssp. Aureus; experiment: In vitro antibacterial activity (MIC), S. aureus; assay type: cell-based; conditions: Staphylococcus aureus, read-out: Sa MIC95
E. coli K12 = experiment: In vitro antibacterial activity (growth inhibition, OD600), E. coli wild-type; assay type: cell-based; conditions: Escherichia coli
[4] = test system: Streptococcus pneumoniae (DSM20566); experiment: In vitro antibacterial activity (MIC), S. pneumoniae; assay type: cell-based; conditions: Streptococcus pneumoniae, DSM20566, read-out: Sp MIC95
[5] = test system: Mycobacterium tuberculosis (Mtb) strain H37Rv; experiment: microbe, parasite or virus in culture; assay type: cell-based; conditions: 168 h, 7 days, footnote b: not active at maximum solubility, read-out: MtbH37Rv MIC90
Escherichia coli ∆tolC = experiment: microbe, parasite or virus in culture; assay type: cell-based; conditions: Escherichia coli
[6] = PA14, 50 μM compound, Table 1 and main text, read-out: PA14 inh. at 50 μM
[7] = 50 μM compound, Table 1 and main text, read-out: Ab inh. at 50 μM
[8] = 50 µM, Table S1, with standard deviation, read-out: Ab inh. at 50 µM (%)
[9] = Table S2, with standard deviation
[10] = K12, 50 μM compound, Table 1 and main text, read-out: EcK12 inh. at 50 μM
[11] = K12, read-out: EcK12 inh. at 50 μM, 50 μM compound, Table 1 and main text
[12] = K12, 50 µM, Table S1, with standard deviation, read-out: EcK12 inh. at 50 µM (%)
[13] = PA14, 50 µM, Table S1, with standard deviation, read-out: PA14 inh. at 50 µM (%)

Compound | IC50 [1] [µM] | CC50 (in vitro) [µM] | inhibition at 50 µM [2, 6] [%] | inhibition at 50 µM (Acinetobacter baumannii; [7]) [%] | inhibition at 50 µM (Acinetobacter baumannii; [8]) [%] | MIC ([3]; Table 1 and main text) [µM] | MIC [3, 9] [µM] | inhibition at 50 µM (E. coli K12; [10]) [%] | MIC ([4]; Table 1 and main text) [µM] | MIC [4, 9] [µM] | MIC90 [5] [µM] | MIC (Escherichia coli ∆tolC; read-out: EcΔtolC MIC95) [µM] | MIC (Escherichia coli ∆tolC; read-out: Ec∆tolC MIC95 (µM)) [µM] | inhibition at 50 µM (E. coli K12; [11]) [%] | inhibition at 50 µM (E. coli K12; [12]) [%] | inhibition at 50 µM [2, 13] [%] | MIC (Acinetobacter baumannii; Table S1, printed inside the inhibition column, with standard deviation, unit from Table 1 footnote) [µM] | MIC (Acinetobacter baumannii; printed inside the Ab inhibition column, Table 1 and main text) [µM] | MIC (E. coli K12; K12, Table S1, printed inside the inhibition column, with standard deviation, unit from Table 1 footnote, read-out: EcK12 MIC95) [µM] | inhibition at 50 µM (Escherichia coli ∆tolC; read-out: Ec∆tolC inh. at 50 µM (%)) [%]
O=C(Nc1ccc(CN2CCNCC2)cc1)c1cc(-c2cc(Cl)ccc2O)[nH]n1 [Compound 4A] | 0.27 | 13 | 62 | 24 | 24.2 ± 7.7 | > 50 | > 50 | 34 | 40 (≈ 16.5 µg/mL) | 40 ± 7 (≈ 16.5 µg/mL) | 64 (≈ 26.4 µg/mL) | 40 (≈ 16.5 µg/mL) | 40 ± 8 (≈ 16.5 µg/mL) |  |  |  |  |  |  | 
N=C(N)N1CCN(c2cccc(NC(=O)c3cc(-c4cc(Cl)ccc4O)[nH]n3)c2)CC1 [Compound 5G] | 0.93 | > 50 | 31 | < 10 |  | 23.1 (≈ 10.2 µg/mL) | 23.1 ± 0.5 (≈ 10.2 µg/mL) | 32 | 48 (≈ 21.1 µg/mL) | 48 ± 1 (≈ 21.1 µg/mL) | 64 (≈ 28.2 µg/mL) | 11 (≈ 4.84 µg/mL) | 11 ± 2 (≈ 4.84 µg/mL) |  |  |  |  |  |  | 
N=C(N)N1CCN(c2ccc(NC(=O)c3cc(-c4cc(Cl)ccc4O)[nH]n3)cc2)CC1 [Compound 6G] | 0.44 | > 50 | 55 | 32 |  | 26 (≈ 11.4 µg/mL) | 26 ± 2 (≈ 11.4 µg/mL) |  | 25 (≈ 11 µg/mL) | 25 ± 2 (≈ 11 µg/mL) | 64 (≈ 28.2 µg/mL) | 9 (≈ 3.96 µg/mL) | 9 ± 3 (≈ 3.96 µg/mL) | ≥ 45 |  |  |  |  |  | 
O=C(Nc1cccc(CNC2=NCCN2)c1)c1cc(-c2cc(Cl)ccc2O)[nH]n1 [Compound 7C] | 0.39 | > 50 | 41 | 33 |  | 22.3 (≈ 9.16 µg/mL) | 22.3 ± 0.6 (≈ 9.16 µg/mL) | 29 | 48.2 (≈ 19.8 µg/mL) | 48.2 ± 0.8 (≈ 19.8 µg/mL) | 32 (≈ 13.1 µg/mL) | 13 (≈ 5.34 µg/mL) | 13 ± 3 (≈ 5.34 µg/mL) |  | 29.4 ± 0.6 |  |  |  |  | 
CC(C)(C)OC(=O)N1CCN=C1NCc1cccc(NC(=O)c2cc(-c3cc(Cl)ccc3O)[nH]n2)c1 [Compound 7D] | 0.36 | 19 | ≥ 45 |  |  | 24 (≈ 12.3 µg/mL) | 24 (≈ 12.3 µg/mL) |  | 31 (≈ 15.8 µg/mL) | 31 ± 11 (≈ 15.8 µg/mL) | 64 (≈ 32.7 µg/mL) | 14 (≈ 7.15 µg/mL) | 14 ± 4 (≈ 7.15 µg/mL) | ≥ 45 |  | 54.8 ± 0.8 |  |  |  | 
N=C(N)NCc1cccc(NC(=O)c2cc(-c3cc(Cl)ccc3O)[nH]n2)c1 [Compound 7G] | 0.21 | > 50 | 56 | 24 |  | 22 (≈ 8.47 µg/mL) | 22 ± 2 (≈ 8.47 µg/mL) |  | 49 (≈ 18.9 µg/mL) | 49 (≈ 18.9 µg/mL) | 64 (≈ 24.6 µg/mL) | 13 (≈ 5 µg/mL) | 13 ± 3 (≈ 5 µg/mL) | ≥ 45 |  |  |  |  |  | 
O=C(Nc1ccc(CNC2=NCCN2)cc1)c1cc(-c2cc(Cl)ccc2O)[nH]n1 [Compound 8C] | 0.67 | > 50 | 10 | 12 |  | 49 (≈ 20.1 µg/mL) | 49 ± 1 (≈ 20.1 µg/mL) | < 10 | > 50 | > 50 | > 64 | 21.5 (≈ 8.83 µg/mL) | 21.5 (≈ 8.83 µg/mL) |  |  |  |  |  |  | 
N=C(N)NCc1ccc(NC(=O)c2cc(-c3cc(Cl)ccc3O)[nH]n2)cc1 [Compound 8G, 5-(5-Chloro-2-hydroxyphenyl)-N-(4-(guanidinomethyl)phenyl)-1H-pyrazole-3-carboxamide] | 0.42 | > 50 | 41 | 19.9 |  | 22 (≈ 8.47 µg/mL) | 22 ± 1 (≈ 8.47 µg/mL) | 29 | > 50 | > 50 | > 64 | 47.5 (≈ 18.3 µg/mL) | 47.5 (≈ 18.3 µg/mL) |  |  |  |  |  |  | 
NCc1cc(NC(=O)c2cc(-c3cc(Cl)ccc3O)[nH]n2)cc(C(F)(F)F)c1 [Compound 9A, N-(3-(Aminomethyl)-5-(trifluoromethyl)phenyl)-5-(5-chloro-2-hydroxyphenyl)-1H-pyrazole-3-carboxamide] | 0.082 | 7 | < 10 |  |  | 12.1 (≈ 4.97 µg/mL) | 12.1 ± 0.6 (≈ 4.97 µg/mL) | < 10 | 11 (≈ 4.52 µg/mL) | 10.8 ± 2.5 (≈ 4.44 µg/mL) | 32 (≈ 13.1 µg/mL) | 8 (≈ 3.29 µg/mL) | 8 ± 3 (≈ 3.29 µg/mL) |  |  |  | 48.9 ± 0.5 (≈ 20.1 µg/mL) | 49 (≈ 20.1 µg/mL) |  | 
O=C(Nc1cc(CNC2=NCCN2)cc(C(F)(F)F)c1)c1cc(-c2cc(Cl)ccc2O)[nH]n1 [Compound 9C, 5-(5-Chloro-2-hydroxyphenyl)-N-(3-(((4,5-dihydro-1H-imidazol-2-yl)amino)methyl)-5-(trifluoromethyl)phenyl)-1H-pyrazole-3-carboxamide] | 0.517 | > 50 | 18 | 47 |  | 9 (≈ 4.31 µg/mL) | 9 ± 2 (≈ 4.31 µg/mL) |  | 15 (≈ 7.18 µg/mL) | 15 ± 4 (≈ 7.18 µg/mL) | 16 (≈ 7.66 µg/mL) | 7 (≈ 3.35 µg/mL) | 7 ± 1 (≈ 3.35 µg/mL) | < 10 | 84 ± 2 |  |  |  |  | 
N=C(N)NCc1cc(NC(=O)c2cc(-c3cc(Cl)ccc3O)[nH]n2)cc(C(F)(F)F)c1 [Compound 9G] | 0.078 | > 50 | 50 | 59 |  | 8 (≈ 3.62 µg/mL) | 8 ± 3 (≈ 3.62 µg/mL) |  | > 50 | > 50 | 32 (≈ 14.5 µg/mL) | 5 (≈ 2.26 µg/mL) | 5 ± 2 (≈ 2.26 µg/mL) |  |  |  |  |  | 46 ± 2 (≈ 20.8 µg/mL) | 
NCc1ccc(NC(=O)c2cc(-c3cc(Cl)ccc3O)[nH]n2)cc1C(F)(F)F [Compound 10A] | 0.15 | 13 | < 10 | 86 |  | 29 (≈ 11.9 µg/mL) | 29 ± 3 (≈ 11.9 µg/mL) | 61 | 23 (≈ 9.45 µg/mL) | 23 ± 3 (≈ 9.45 µg/mL) | 64 (≈ 26.3 µg/mL) | 22.9 (≈ 9.41 µg/mL) | 22.9 ± 0.1 (≈ 9.41 µg/mL) |  |  |  |  |  |  | 
O=C(Nc1ccc(C(F)(F)F)c(N2CCNCC2)c1)c1cc(-c2cc(Cl)ccc2O)[nH]n1 [Compound 13A, 5-(5-Chloro-2-hydroxyphenyl)-N-(3-(piperazin-1-yl)-4-(trifluoromethyl)phenyl)-1H-pyrazole-3-carboxamide] | 0.16 | 8 |  |  | < 10 | > 50 | > 50 |  | 29 (≈ 13.5 µg/mL) | 29 ± 2 (≈ 13.5 µg/mL) | 32 (≈ 14.9 µg/mL) | > 50 |  |  |  | < 10 |  |  |  | 46 ± 5

— PMC11938010, “Positive Charge in an Antimalarial Compound Unlocks Broad-Spectrum Antibacterial Activity” (JACS Au, 2025)
